US20210046071A1, “TETRACYCLIC COMPOUNDS AND THEIR SALTS, COMPOSITIONS, AND METHODS FOR THEIR USE” (Senhwa Biosciences, Inc., priority 2019, published 2021)
Read-outs that look alike come from different tables or passages of the source.

Assay: Pharmacokinetic studies in human, Compound I in plasma by LC/MS/MS
Type: in vivo
Settings: human, plasma, iv; for AUC(0-inf): read-out: AUC∞; for half-life: read-out: T1/2 (converted)
Procedure: Pharmacokinetic studies and dose escalation studies were conducted in adult patients with metastatic, recurrent, locally, advanced, or unresectable solid malignancy (patients with histologically and/or cytologically confirmed solid malignancy), who received prior anti-cancer treatment(s) until disease progression, at 10 different dose levels of Compound I. Groups 1-7 were administered intravenously on days 1 and 8 of a 4-week cycle at 50, 100, 150, 200, 250, 325, and 475 mg/m^2 (lyophilized formulation), respectively. Groups 8-10 were administered intravenously on days 1,8, and 15 of a 4-week cycle at 325, 475, and 650 mg/m^2 (lyophilized formulation), respectively. Each patient received each dose over 1 hour by IV infusion on days described above.
They lyophilized formulation was reconstituted with 5% glucose in sterile water, or similar biologically acceptable fluid, for IV infusion.
For patients in Groups 1-7, blood samples were typically collected at Day 1 at pre-infusion (t=−1 h), during infusion at about 30 minutes (t=−0.5 h), immediately post infusion (t=0 h), 30 min post-infusion, 1 h post-infusion, 2 h post-infusion, 4 h post-infusion, and 6 h post-infusion, as well as at about 24 h post-infusion, 48 h post-infusion, and 72 h post-infusion. On Day 8, blood samples were typically collected at pre-infusion (t=−1 h), during infusion at about 30 minutes (t=−0.5 h), immediately post infusion (t=0 h), 30 min post-infusion, 1 h post-infusion, 2 h post-infusion, 4 h post-infusion, and 6 h post-infusion, as well as at about 24 h post-infusion, and 168 h post-infusion (Day 15).
For patients in Groups 8-10, blood samples were typically collected at Day 1 at pre-infusion (t=−1 h), during infusion at about 30 minutes (t=−0.5 h), immediately post infusion (t=0 h), 30 min post-infusion, 1 h post-infusion, 2 h post-infusion, 4 h post-infusion, and 6 h post-infusion, as well as at about 24 h post-infusion, 48 h post-infusion, and 72 h post-infusion. On Day 8, blood samples were typically collected at pre-infusion (t=−1 h). On Day 15, blood samples were typically collected at pre-infusion (t=−1 h), during infusion at about 30 minutes (t=−0.5 h), immediately post infusion (t=0 h), 30 min post-infusion, 1 h post-infusion, 2 h post-infusion, 4 h post-infusion, and 6 h post-infusion, as well as at about 24 h post-infusion, and 168 h post-infusion (Day 22).
Levels of Compound I in patient's plasma were analyzed by liquid chromatography tandem mass spectrometry (LC/MS/MS) assay. Experimental procedures of the validated methods are summarized below. The pharmacokinetic parameters after first dose and second dose for Groups 1-7 and after first dose and third dose for Groups 8-10 are shown in Tables 2A-2J. In Tables 2A-2J: SD=standard deviation; Cmax=maximum observed concentration; D=dose; Tmax=time to maximum observed concentration; T1/2=elimination half-life; Vd=volume of distribution; CL=drug clearance; and AUC∞=area under the concentration-time curve from time zero to infinity (total exposure).
The concentrations of Compound I in human plasma samples collected from subjects of as discussed above. Compound I concentrations in plasma samples were measured based on 9 levels of calibration standards from 5.00 to 5000 ng/mL, and 3 levels of QC at 15.0 ng/mL (low), 2500 ng/mL (mid), and 4000 ng/mL (high).
Two reference standard master stock solutions of Compound I were prepared by dissolving the Compound 1 reference standard with 50:50:0.1 ACN:diH2O:FA (v/v/v) and sonicating for 7 minutes (diH2O=deionized water). The resulting solutions were further diluted with 50:50:0.1 ACN:diH2O:FA (v/v/v) into a series of working stock solutions (WSS) for spiking of Compound I calibration standards and QC samples. The master stock solutions were prepared fresh on the day of assay, or stored at nominal 2° C. to 8° C. for later use. Master stock solutions were used within the stability timeframe. […]

[1] = 150 mg/m2, Group 3, 150 mg/m^2 IV, Day 8, mean, n = 4
[2] = 200 mg/m2, Group 4, 200 mg/m^2 IV, Day 1, mean, n = 4
[3] = 200 mg/m2, Group 4, 200 mg/m^2 IV, Day 8, mean, n = 4
[4] = 250 mg/m2, Group 5, 250 mg/m^2 IV, Day 1, mean, n = 3
[5] = 250 mg/m2, Group 5, 250 mg/m^2 IV, Day 8, mean, n = 3
[6] = 325 mg/m2, Group 6, 325 mg/m^2 IV, Day 1, mean, n = 3
[7] = 325 mg/m2, Group 6, 325 mg/m^2 IV, Day 8, mean, n = 3
[8] = 325 mg/m2, Group 8, 325 mg/m^2 IV, Day 1, mean, n = 3
[9] = 325 mg/m2, Group 8, 325 mg/m^2 IV, Day 1, mean, n = 4
[10] = 325 mg/m2, Group 8, 325 mg/m^2 IV, Day 15, mean, n = 4
[11] = 475 mg/m2, Group 7, 475 mg/m^2 IV, Day 1, mean, n = 3
[12] = 475 mg/m2, Group 7, 475 mg/m^2 IV, Day 8, mean, n = 3
[13] = 475 mg/m2, Group 9, 475 mg/m^2 IV, Day 1, mean, n = 5
[14] = 475 mg/m2, Group 9, 475 mg/m^2 IV, Day 15, mean, n = 4
[15] = 475 mg/m2, Group 9, 475 mg/m^2 IV, Day 15, mean, n = 5
[16] = 650 mg/m2, Group 10, 650 mg/m^2 IV, Day 1, mean, n = 5
[17] = 650 mg/m2, Group 10, 650 mg/m^2 IV, Day 15, mean, n = 5

Tmax [1]: 0.646 h
Vd [1]: 939 L
clearance [1]: 203 mL/min
AUC(0-inf) [1]: 21800 ng·h/mL
half-life [1]: 59.1 h
Cmax [2]: 8950 ng/mL
Tmax [2]: 0.854 h
Vd [2]: 1700 L
clearance [2]: 505 mL/min
AUC(0-inf) [2]: 15100 ng·h/mL
half-life [2]: 41.9 h
Cmax [3]: 1180 ng/mL
Tmax [3]: 1.3 h
Vd [3]: 2050 L
clearance [3]: 470 mL/min
AUC(0-inf) [3]: 16200 ng·h/mL
half-life [3]: 53.5 h
Cmax [4]: 1410 ng/mL
Tmax [4]: 1.19 h
Vd [4]: 1450 L
clearance [4]: 348 mL/min
AUC(0-inf) [4]: 20900 ng·h/mL
half-life [4]: 47.9 h
Cmax [5]: 771 ng/mL
Tmax [5]: 1.2 h
Vd [5]: 2160 L
clearance [5]: 258 mL/min
AUC(0-inf) [5]: 28100 ng·h/mL
half-life [5]: 96.9 h
Cmax [6]: 1070 ng/mL
Tmax [6]: 1.02 h
Vd [6]: 1930 L
clearance [6]: 390 mL/min
AUC(0-inf) [6]: 23500 ng·h/mL
half-life [6]: 66.9 h
Cmax [7]: 1040 ng/mL
Tmax [7]: 0.672 h
Vd [7]: 2220 L
clearance [7]: 307 mL/min
AUC(0-inf) [7]: 29000 ng·h/mL
half-life [7]: 86.5 h
Vd [8]: 2320 L
clearance [8]: 322 mL/min
AUC(0-inf) [8]: 29100 ng·h/mL
half-life [8]: 83.4 h
Cmax [9]: 1140 ng/mL
Tmax [9]: 0.767 h
Cmax [10]: 21100 ng/mL
Tmax [10]: 0.783 h
Cmax [11]: 1940 ng/mL
Tmax [11]: 0.861 h
Vd [11]: 2590 L
clearance [11]: 418 mL/min
AUC(0-inf) [11]: 36200 ng·h/mL
half-life [11]: 81.8 h
Cmax [12]: 1710 ng/mL
Tmax [12]: 0.678 h
Vd [12]: 2430 L
clearance [12]: 482 mL/min
AUC(0-inf) [12]: 35400 ng·h/mL
half-life [12]: 73.8 h
Cmax [13]: 1750 ng/mL
Tmax [13]: 1.18 h
Vd [13]: 2320 L
clearance [13]: 460 mL/min
AUC(0-inf) [13]: 36300 ng·h/mL
half-life [13]: 61.5 h
Vd [14]: 2570 L
clearance [14]: 532 mL/min
AUC(0-inf) [14]: 32500 ng·h/mL
half-life [14]: 59 h
Cmax [15]: 2870 ng/mL
Tmax [15]: 0.737 h
Cmax [16]: 3080 ng/mL
Tmax [16]: 0.81 h
Vd [16]: 3700 L
AUC(0-inf) [16]: 57500 ng·h/mL
half-life [16]: 122 h
Cmax [17]: 4170 ng/mL
Tmax [17]: 1.05 h
Vd [17]: 2620 L
AUC(0-inf) [17]: 62200 ng·h/mL
half-life [17]: 93.6 h
SMILES: Cc1cnc(CNC(=O)c2c(=O)c3ccc(N4CCCN(C)CC4)nc3n3c2sc2ccccc23)cn1 [Compound I, 2-(4-Methyl-[1,4]diazepan-1-yl)-5-oxo-5H-7-thia-1,11b-diaza-benzo[c]fluorene-6-carboxylic acid (5-methyl-pyrazin-2-ylmethyl)-amide]
